Source: patent US12496332B2 (priority 2019, dated 2025)

Key:
[1] = test system: A549 cells infected with influenza A virus; assay type: cell-based, human; details: for decrease of the SOD1 protein during viral infection: A549 cells treated in vitro with inhibitor of autophagy or endoplasmic reticulum stress
influenza virus [2] = test system: influenza virus; design: species or system mice (C57BL/6N or BALB/c); details: mouse, in vivo
influenza virus [3] = assay type: in vivo, mice

Cn1cnc(N)c2ncnc1-2 [3-MA, 3-methyladenine]
LC3 conversion [1]: decreased | amount of SOD1 protein [1]: increase | expression of viral protein PB1 [1]: decreased expression | decrease of the SOD1 protein during viral infection [1]: reduced significantly

O=C(O)CCCc1ccccc1 [4-PBA, 4-phenylbutyrate]
decrease of the SOD1 protein during viral infection [1]: reduced significantly | production of ROS compared to non-administration group (influenza virus [2]): decreased significantly

CC(=O)N[C@@H](CS)C(=O)O [NAC, N-acetylcysteine]
body weight (survivability) (influenza virus [3]; […], SOD1 50 units/mouse, NAC 1 mg/mouse, 4-PBA 2.5 mg/mouse, catalase 50 units/mouse): significant difference in body weight

CCN(CC)CCCC(C)Nc1ccnc2cc(Cl)ccc12 (stereo not drawn) [chloroquine]
amount of SOD1 protein [1]: more distinct than that of 3-MA | decrease of the SOD1 protein during viral infection [1]: reduced significantly

SOD1: superoxide dismutase 1, ROS scavenger; human SOD1 gene expressed in bacteria from pET-SOD1
body weight decrease (influenza virus [3]; mouse, in vivo): slightly inhibited | amount of ROS in the bronchoalveolar lavage fluid (influenza virus [2]): decreased | amount of SOD1 in lung tissue (influenza virus [2]): recovered to a level close to that before the infection
